From ChEMBL document CHEMBL4422664, “2-Benzoylbenzofuran derivatives possessing piperazine linker as anticancer agents” (Bioorg Med Chem Lett, 2019) come the findings set out here.

Each structure is given as a SMILES string. pIC50: −log10 of the molar value.

The test system of experiment [1] is A549. Put plainly: Cytotoxicity against human A549 assessed as reduction in cell viability after 48 hrs by MTT assay. It is filed as functional, cell-based. Conditions: A549, 48 h. For orientation: Tetrazolium assays rely on reduction of a dye to a coloured formazan, in cell work by metabolically active cells.
Experiment [2] has as its system HeLa. Put plainly: Cytotoxicity against human HeLa assessed as reduction in cell viability after 48 hrs by MTT assay. The class given is functional, cell-based.
Experiment [3] concerns SGC-7901. Put plainly: Cytotoxicity against human SGC7901 assessed as reduction in cell viability after 48 hrs by MTT assay. It is filed as functional, cell-based. The conditions noted are these: SGC-7901, 48 h.
The test system of experiment [4] is HCT-116. As to the kind of experiment: Cytotoxicity against human HCT116 assessed as reduction in cell viability after 48 hrs by MTT assay. It is filed as functional, cell-based. The conditions noted are these: HCT-116, 48 h.
Experiment [5] concerns MCF7. Put plainly: Cytotoxicity against human MCF7 assessed as reduction in cell viability after 48 hrs by MTT assay. It is filed as functional, cell-based. The conditions noted are these: MCF7, 48 h.
Experiment [6] deals with L02. Put plainly: Cytotoxicity against human L02 assessed as reduction in cell viability after 48 hrs by MTT assay. Conditions: L02, 48 h. The class given is cell-based.

In the case of `CCN(CC)c1ccc2cc(C(=O)c3ccc(N4CCN(C(=O)CN5CCN(C(=O)CCl)CC5)CC4)cc3)oc2c1`, the pIC50 (in general, the IC50 on a negative log10 scale, so that one unit is a factor of ten) in experiment [1] was 5.51; in experiment [2] it was 5.26; in experiment [3], 5.79; in experiment [4], less than 4.40; in experiment [5], less than 4.40; in experiment [6], 4.68.
Take `CCN(CC)c1ccc2cc(C(=O)c3ccc(N4CCN(C(=O)CN5CCN(Cc6ccc(C(F)(F)F)cc6)CC5)CC4)cc3)oc2c1`: the pIC50 in experiment [1] is 4.70; in experiment [2], less than 4.40; in experiment [3], 4.49; in experiment [4], less than 4.40; in experiment [5], 4.74; in experiment [6], 5.18.
With `CCN(CC)c1ccc2cc(C(=O)c3ccc(N4CCN(C(=O)CN5CCNCC5)CC4)cc3)oc2c1`, the pIC50 in experiment [1] is 6.49; in experiment [2], 5.87; in experiment [3] it was 5.91; in experiment [4] it was 5.73; in experiment [5], 5.27; in experiment [6] it was less than 4.00.
Consider `CCN(CC)c1ccc2cc(C(=O)c3ccc(N4CCN(C(=O)CN5CCN(C(=O)c6ccc(F)cc6)CC5)CC4)cc3)oc2c1`, for which the pIC50 in experiment [1] was less than 4.40; in experiment [2] it was less than 4.40; in experiment [3] it was less than 4.40; in experiment [4], less than 4.40; in experiment [5] it was less than 4.40; in experiment [6] it was less than 4.00.
Turning to `CCN(CC)c1ccc2cc(C(=O)c3ccc(N4CCN(C(=O)CN5CCN(Cc6ccc(C#N)cc6)CC5)CC4)cc3)oc2c1`, the pIC50 is 4.76 in experiment [1]; less than 4.40 in experiment [2]; 4.58 in experiment [3]; less than 4.40 in experiment [4]; less than 4.40 in experiment [5]; 4.53 in experiment [6].
`CCN(CC)c1ccc2cc(C(=O)c3ccc(N4CCN(C(=O)CN5CCN(S(=O)(=O)c6ccc(C#N)cc6)CC5)CC4)cc3)oc2c1`: the pIC50 in experiment [1] was less than 4.40; in experiment [2] it was 5.07; in experiment [3], less than 4.40; in experiment [4], 4.44; in experiment [5] it was less than 4.40; in experiment [6], 4.36.
As to `CCN(CC)c1ccc2cc(C(=O)c3ccc(N4CCN(C(=O)CN5CCN(CC(=O)c6ccc(F)cc6)CC5)CC4)cc3)oc2c1`, the pIC50 in experiment [1] is 6.24; in experiment [2], 5.02; in experiment [3], 5.46; in experiment [4], 4.85; in experiment [5], 4.78; in experiment [6], 4.16.
Turning to `CCN(CC)c1ccc2cc(C(=O)c3ccc(N4CCN(C(=O)CN5CCN(S(=O)(=O)c6ccc(F)cc6)CC5)CC4)cc3)oc2c1`, the pIC50 in experiment [1] is 4.48; in experiment [2], 4.78; in experiment [3], less than 4.40; in experiment [4], less than 4.40; in experiment [5] it was 4.69; in experiment [6], 5.03.
In the case of `CCN(CC)c1ccc2cc(C(=O)c3ccc(N4CCN(C(=O)CN5CCN(CC(=O)c6ccc(C#N)cc6)CC5)CC4)cc3)oc2c1`, the pIC50 was 5.34 in experiment [1]; 5.61 in experiment [2]; less than 4.40 in experiment [3]; less than 4.40 in experiment [4]; 4.93 in experiment [5]; less than 4.00 in experiment [6].
Regarding `CCN(CC)c1ccc2cc(C(=O)c3ccc(N4CCN(C(=O)CN5CCN(CC(=O)c6ccc7ccccc7c6)CC5)CC4)cc3)oc2c1`, the pIC50 is 4.58 in experiment [1]; 4.77 in experiment [2]; less than 4.40 in experiment [3]; less than 4.40 in experiment [4]; less than 4.40 in experiment [5]; less than 4.00 in experiment [6].
`CCN(CC)c1ccc2cc(C(=O)c3ccc(N4CCN(C(=O)CN5CCN(C(=O)c6cc(Cl)cc(Cl)c6)CC5)CC4)cc3)oc2c1`: the pIC50 in experiment [1] is 5.17; in experiment [2], 5.09; in experiment [3] it was 5.57; in experiment [4], 4.55; in experiment [5], 4.79; in experiment [6], less than 4.00.
For the compound `CCN(CC)c1ccc2cc(C(=O)c3ccc(N4CCN(C(=O)CN5CCN(CC(=O)c6ccc(C)cc6)CC5)CC4)cc3)oc2c1`, the pIC50 in experiment [1] is 6.06; in experiment [2], 5.77; in experiment [3], less than 4.40; in experiment [4], 4.87; in experiment [5] it was less than 4.40; in experiment [6] it was 4.44.
As for `CCN(CC)c1ccc2cc(C(=O)c3ccc(N4CCN(C(=O)CN5CCN(CC(=O)c6ccc(OC)cc6)CC5)CC4)cc3)oc2c1`, the pIC50 in experiment [1] is 5.32; in experiment [2] it was 4.82; in experiment [3], 5.05; in experiment [4], 4.75; in experiment [5], 4.78; in experiment [6] it was less than 4.00.
With `CCOC(=O)CN1CCN(CC(=O)N2CCN(c3ccc(C(=O)c4cc5ccc(N(CC)CC)cc5o4)cc3)CC2)CC1`, the pIC50 in experiment [1] was less than 4.40; in experiment [2], 4.66; in experiment [3], less than 4.40; in experiment [4], less than 4.40; in experiment [5], less than 4.40; in experiment [6], 4.16.
Regarding `CCN(CC)c1ccc2cc(C(=O)c3ccc(N4CCN(C(=O)CN5CCN(C(=O)/C=C/c6ccccc6)CC5)CC4)cc3)oc2c1`, the pIC50 in experiment [1] is 5.02; in experiment [2] it was 5.28; in experiment [3], 5.94; in experiment [4], 5.17; in experiment [5], 4.87; in experiment [6] it was less than 4.00.
Take `CCN(CC)c1ccc2cc(C(=O)c3ccc(N4CCN(C(=O)CN5CCN(S(=O)(=O)C6CC6)CC5)CC4)cc3)oc2c1`: the pIC50 was 4.76 in experiment [1]; 4.55 in experiment [2]; 4.81 in experiment [3]; less than 4.40 in experiment [4]; less than 4.40 in experiment [5]; less than 4.00 in experiment [6].
As for `O=c1[nH]cc(F)c(=O)[nH]1` [FLUOROURACIL], the pIC50 was 4.98 in experiment [1]; 4.97 in experiment [2]; 4.92 in experiment [3]; 4.81 in experiment [4]; 4.58 in experiment [5].
For the compound `CCN(CC)c1ccc2cc(C(=O)c3ccc(N4CCN(C(=O)CN5CCN(S(=O)(=O)c6ccc(C(F)(F)F)cc6)CC5)CC4)cc3)oc2c1`, the pIC50 in experiment [1] is less than 4.40; in experiment [2], less than 4.40; in experiment [3], less than 4.40; in experiment [4], 4.49; in experiment [5], 4.76; in experiment [6] it was 4.77.
For the compound `CCN(CC)c1ccc2cc(C(=O)c3ccc(N4CCN(C(=O)CN5CCN(CC(=O)c6ccccc6)CC5)CC4)cc3)oc2c1`, the pIC50 in experiment [1] was 4.90; in experiment [2] it was 5.51; in experiment [3] it was 5.39; in experiment [4], 4.57; in experiment [5], 4.46; in experiment [6] it was 4.27.
As to `C#CCN1CCN(CC(=O)N2CCN(c3ccc(C(=O)c4cc5ccc(N(CC)CC)cc5o4)cc3)CC2)CC1`, the pIC50 in experiment [1] was less than 4.40; in experiment [2] it was less than 4.40; in experiment [3] it was 4.70; in experiment [4], 4.75; in experiment [5], less than 4.40; in experiment [6], less than 4.00.
With `CCN(CC)c1ccc2cc(C(=O)c3ccc(N4CCN(C(=O)CN5CCN(Cc6ccc(F)c(F)c6)CC5)CC4)cc3)oc2c1`, the pIC50 in experiment [1] was 5.26; in experiment [2], 5.19; in experiment [3], 5.75; in experiment [4], 4.58; in experiment [5], 5.04; in experiment [6], 4.99.
For `CCN(CC)c1ccc2cc(C(=O)c3ccc(N4CCN(C(=O)CN5CCN(C(=O)c6ccc(C(F)(F)F)cc6)CC5)CC4)cc3)oc2c1`, the pIC50 in experiment [1] was less than 4.40; in experiment [2], less than 4.40; in experiment [3], less than 4.40; in experiment [4], less than 4.40; in experiment [5], less than 4.40; in experiment [6], 4.85.
Take `CCN(CC)c1ccc2cc(C(=O)c3ccc(N4CCN(C(=O)CN5CCN(CC(C)=O)CC5)CC4)cc3)oc2c1`: the pIC50 in experiment [1] is 5.05; in experiment [2], 5.56; in experiment [3], 5.66; in experiment [4] it was 4.62; in experiment [5] it was 4.96; in experiment [6], less than 4.00.
On to `CCN(CC)c1ccc2cc(C(=O)c3ccc(N4CCN(C(=O)CN5CCN(S(=O)(=O)c6ccc(OC(F)(F)F)cc6)CC5)CC4)cc3)oc2c1`, for which the pIC50 in experiment [1] was less than 4.40; in experiment [2], 4.52; in experiment [3] it was 4.61; in experiment [4], 5.11; in experiment [5], 4.70; in experiment [6], 4.46.
